Source: US20240285670A1, “THERAPEUTIC TREATMENT OF TUMORS BY BLOCKING THE HEME SYNTHESIS-EXPORT AXIS” (Università degli Studi di Torino, priority 2021, published 2024)

Legend:
[1] = tested on: BTECs; experiment: Heme content in BTECs; assay type: cell-based, human; details: FLVCR1a knockdown vs scramble shRNA BTECs
Excerpt: (A) Frequency (%) of patient tumors with overexpression of FLVCR1 compared to their matched normal tissues across multiple cancer types. The number of patients showing tumor FLVCR1 overexpression relative to the total number of patients examined are indicated in the plot. Data derive from the BioXpress (Wan et al., 2015). […] Transcript abundance, normalized to beta-actin mRNA expression (for SHSY-5Y cells) or to 18s mRNA (for BTECs), is expressed as a fold increase over a calibrator sample. Data represent mean±SEM, n=4. For statistical analyses, an unpaired Student's t-test was used; ***p<0.001. (C, E) Western blot analysis of FLVCR1a expression in SHSY-5Y cells (C) and BTECs (E). […] Band intensities were measured by densitometry and normalized to vinculin expression. […] Values are expressed as pmol heme/mg protein. […] Values are expressed as pmol heme/mg protein. […]
Intracellular heme concentration was measured using a fluorescence assay, as previously reported (Sinclair et al., 2001). […] Fluorescence (wavelength: excitation 405 nm-emission 660-720 nm) of the resultant protoporphyrin was assessed on a Glomax Multi Detection System (Promega Corporation, Madison WI, USA).
The endogenous protoporphyrin content (measured in parallel unheated samples in oxalic acid) was subtracted. […] Results were expressed as relative fluorescence intensity or, alternatively, as pmol of heme/mg total protein.

[2] = tested on: BTECs; experiment: Mitochondrial ATP levels in BTECs; assay type: cell-based, human; details: FLVCR1a-silenced vs scramble shRNA BTECs
Excerpt: Results were expressed as nmol NAD*/min/mg mitochondrial protein for complex I, nmol reduced cytochrome c/min/mg mitochondrial protein for complexes II-III, nmol oxidized cytochrome c/min/mg mitochondrial protein for complex IV. Data represent mean±SEM, n=3. For statistical analyses, an unpaired Student's t-test was used; *=p<0.05, **=p<0.01, *=p<0.001. […] Results are expressed as nmol/mg mitochondrial proteins. Data represent mean±SEM, n=3. For statistical analyses, an unpaired Student's t-test was used; *=p<0.05. […] Results are expressed as pmol CO2/h/mg protein. Data represent mean±SEM, n=3. For statistical analyses, an unpaired Student's t-test was used; **=p<0.01. […] Results were expressed as nmol NAD*/min/mg mitochondrial protein for complex I, nmol reduced cytochrome c/min/mg mitochondrial protein for complexes II-III, nmol oxidized cytochrome c/min/mg mitochondrial protein for complex IV. […] Results are expressed as nmol/mg mitochondrial proteins. […] Results are expressed as pmol CO2/h/mg protein. […] (H) TCA cycle enzymes activities are reported in boxes and expressed as mU/mg mitochondrial proteins. […] Results were expressed as nmol NAD^+/min/mg mitochondrial protein for complex I, nmol reduced cytochrome c/min/mg mitochondrial protein for complexes II-III, nmol oxidized cytochrome c/min/mg mitochondrial protein for complex IV. […] Results are expressed as nmol/mg mitochondrial proteins. […]

Q: Which results are given for “FLVCR1a shRNA: shRNA specifically down-regulating FLVCR1a without targeting FLVCR1b; pLKO.1 lentiviral clone TRCN0000059599, antisense SEQ ID No.: 2 (antisense TTGCTAATGATGCTGTACTGG; sense CCAGTACAGCATCATTAGCAA)”?
A: heme levels at the steady state [1]: increased heme levels; mitochondrial ATP levels [2]: increased mitochondrial ATP levels
